According to PubChem BioAssay AID328 (DTP/NCI, 2004):
Inconclusive results and toxic doses are left out.

Test system: BDF1 mice, P388 leukemia ip, median survival T/C
Experiment: NCI In Vivo Anticancer Drug Screen. Data for tumor model P388 Leukemia (intraperitoneal) in B6D2F1 (BDF1) mice
Conditions: endpoint: median survival time, higher = longer survival
How it was run: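 Vehicle-dosed animals serve as the reference; survival of compound-dosed, tumour-implanted mice is divided by it.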

[1] = dose: 25.0 mg/kg/injection, schedule: Q04DX003 (ip), vehicle: Klucel (hydroxypropylcellulose) (HPC)

With `NC(CC(=O)CCl)C(=O)O` (centres undefined) the T/C (dose: 8.25 mg/kg/injection, schedule: Q04DX003 (ip), vehicle: saline with Tween-80) was 154 % of control, the T/C (dose: 12.5 mg/kg/injection, schedule: Q04DX003 (ip), vehicle: Klucel (hydroxypropylcellulose) (HPC)) was 165 % of control and the T/C (dose: 12.5 mg/kg/injection, schedule: Q04DX003 (ip), vehicle: saline with Tween-80) was 172 % of control. The T/C (dose: 18.75 mg/kg/injection, schedule: Q04DX003 (ip), vehicle: saline with Tween-80) was 109 % of control and the T/C [1] was 165 % of control.

With `CC(=O)[O][Hg][CH]1CCC2OC1CC[CH]2[Hg][O]C(C)=O` (centres undefined) the T/C (dose: 1.56 mg/kg/injection, schedule: Q01DX009 (ip), vehicle: saline with Tween-80) was 101 % of control, the T/C (dose: 3.13 mg/kg/injection, schedule: Q01DX009 (ip), vehicle: saline with Tween-80) was 113 % of control and the T/C (dose: 6.25 mg/kg/injection, schedule: Q01DX009 (ip), vehicle: saline with Tween-80) was 111 % of control. For the same molecule, the T/C (dose: 12.5 mg/kg/injection, schedule: Q01DX009 (ip), vehicle: saline with Tween-80) was 104 % of control.

In the case of `C=C(C)C(=O)O[C@H]1CC2=C[C@@H](C[C@@]3(C)O[C@@H]3[C@H]3OC(=O)C(=C)[C@@H]31)OC2=O`, the T/C (dose: 2.2 mg/kg/injection, schedule: Q01DX010 (ip), vehicle: carboxymethylcellulose (CMC)) is reported as 113 % of control, the T/C (dose: 2.5 mg/kg/injection, schedule: Q01DX009 (ip), vehicle: saline + alcohol) is reported as 109 % of control and the T/C (dose: 3.3 mg/kg/injection, schedule: Q01DX010 (ip), vehicle: carboxymethylcellulose (CMC)) is reported as 118 % of control. The T/C (dose: 5.0 mg/kg/injection, schedule: Q01DX010 (ip), vehicle: carboxymethylcellulose (CMC)) was 113 % of control, the T/C (dose: 7.5 mg/kg/injection, schedule: Q01DX010 (ip), vehicle: carboxymethylcellulose (CMC)) was 152 % of control and the T/C (dose: 7.5 mg/kg/injection, schedule: Q01DX010 (ip), vehicle: saline) was 118 % of control. The T/C (dose: 10.0 mg/kg/injection, schedule: Q01DX009 (ip), vehicle: saline) was 120 % of control, the T/C (dose: 15.0 mg/kg/injection, schedule: Q01DX010 (ip), vehicle: carboxymethylcellulose (CMC)) was 157 % of control and the T/C (dose: 15.0 mg/kg/injection, schedule: Q01DX010 (ip), vehicle: saline) was 109 % of control. For the same molecule, the T/C (dose: 20.0 mg/kg/injection, schedule: Q01DX009 (ip), vehicle: saline + alcohol) was 122 % of control, the T/C (dose: 30.0 mg/kg/injection, schedule: Q01DX010 (ip), vehicle: carboxymethylcellulose (CMC)) was 115 % of control and the T/C (dose: 30.0 mg/kg/injection, schedule: Q01DX010 (ip), vehicle: saline) was 118 % of control. The T/C (dose: 40.0 mg/kg/injection, schedule: Q01DX009 (ip), vehicle: saline) was 160 % of control and the T/C (dose: 60.0 mg/kg/injection, schedule: Q01DX010 (ip), vehicle: saline) was 90 % of control.

`CC(=O)O[C@H]1C(=O)[C@@]2(C)[C@H]([C@H](OC(=O)c3ccccc3)[C@]3(O)C[C@H](OC(=O)[C@H](O)[C@@H](NC(=O)c4ccccc4)c4ccccc4)C(C)=C1C3(C)C)[C@]1(OC(C)=O)CO[C@@H]1C[C@@H]2O` was tested, and the T/C (dose: 5.0 mg/kg/injection, schedule: Q01DX010 (ip), vehicle: steriod suspending solution) was 186 % of control, the T/C (dose: 10.0 mg/kg/injection, schedule: Q01DX010 (ip), vehicle: steriod suspending solution) was 172 % of control and the T/C (dose: 12.5 mg/kg/injection, schedule: Q04DX003 (iv), vehicle: Klucel (hydroxypropylcellulose) (HPC)) was 100 % of control. For the same molecule, the T/C (dose: 20.0 mg/kg/injection, schedule: Q01DX010 (ip), vehicle: steriod suspending solution) was 190 % of control, the T/C (dose: 21.6 mg/kg/injection, schedule: Q04DX003 (ip), vehicle: Klucel (hydroxypropylcellulose) (HPC)) was 171 % of control and the T/C (dose: 25.0 mg/kg/injection, schedule: Q01DX010 (ip), vehicle: steriod suspending solution) was 113 % of control. For the same molecule, the T/C [1] was 162 % of control, the T/C (dose: 25.0 mg/kg/injection, schedule: Q04DX003 (iv), vehicle: Klucel (hydroxypropylcellulose) (HPC)) was 98 % of control and the T/C (dose: 25.9 mg/kg/injection, schedule: Q04DX003 (ip), vehicle: Klucel (hydroxypropylcellulose) (HPC)) was 179 % of control. For the same molecule, the T/C (dose: 43.2 mg/kg/injection, schedule: Q04DX003 (ip), vehicle: Klucel (hydroxypropylcellulose) (HPC)) was 170 % of control, the T/C (dose: 50.0 mg/kg/injection, schedule: Q04DX003 (ip), vehicle: Klucel (hydroxypropylcellulose) (HPC)) was 165 % of control and the T/C (dose: 50.0 mg/kg/injection, schedule: Q04DX003 (iv), vehicle: Klucel (hydroxypropylcellulose) (HPC)) was 103 % of control. For the same molecule, the T/C (dose: 60.0 mg/kg/injection, schedule: Q04DX003 (ip), vehicle: Klucel (hydroxypropylcellulose) (HPC)) was 102 % of control, the T/C (dose: 72.0 mg/kg/injection, schedule: Q04DX003 (ip), vehicle: Klucel (hydroxypropylcellulose) (HPC)) was 166 % of control and the T/C (dose: 100.0 mg/kg/injection, schedule: Q04DX003 (ip), vehicle: Klucel (hydroxypropylcellulose) (HPC)) was 173 % of control. For the same molecule, the T/C (dose: 120.0 mg/kg/injection, schedule: Q04DX003 (ip), vehicle: Klucel (hydroxypropylcellulose) (HPC)) was 100 % of control.
